Reference: patent US20250127824A1, “BACTERIAL STRAIN USED IN THE PREVENTION AND/OR TREATMENT OF INFLAMMATORY PATHOLOGIES” (VERB BIOTICS, priority 2021, published 2025)

Legend:
[1] = test system: HT-29 colon adenocarcinoma line; assay: IL-8 secretion by TNF-α-stimulated HT-29 cells, supernatant with or without 5-ASA or Budesonide; assay type: cell-based; conditions: TNF-α 5 ng/ml, 6 h, 10% supernatant
Description: The HT-29 cells (ECACC) were inoculated into 24-well plates at 3×10^5 cells per well in McCoy's 5A (Gibco) medium supplemented with 10% fetal calf serum (FCS, Gibco) and incubated at 37° C./5% […] for 24 h. The cells were washed with PBS-1× (Gibco) and cultivated for an additional 24 h in McCoy's 5A medium at 2% FCS. The cells were then stimulated for 6 hours with 5 ng/ml of TNF-α in the presence of 10% of supernatant in stationary phase of DSM 33715 or of bacterial culture medium as control (ctrl), whether or not in the presence of anti-inflammatory agents. 5-ASA (10 mM) and budesonide (20 μM) are molecules used in the treatment of inflammatory diseases, such as ulcerative colitis and Crohn's disease. After 6 h, the cell culture supernatants were collected and stored at −80° C. until the […] was quantified by ELISA. The IL-8 assay was carried out by BioLegend specific ELISA, according to the manufacturer's instructions. The absorbance at 460 nm was read using the FluoStar Omega microplate reader of BMG Labtech. Statistics: Sidak's multiple comparisons test. * p<0.05, ** p<0.01, *** […], **** p<0.0001. […]

JAK/STAT pathway = assay: JAK/STAT luciferase reporter in IFN-γ-stimulated HT-29 cells, supernatant with or without Tofacitinib; assay type: cell-based; conditions: 10% supernatant, Tofacitinib 1 μM, 6 h
Description: HT-29 cells at a density of 3×10^5 cells/well, in 24-well plate, were transfected according to a reverse-transfection protocol, with 200 ng of pGL4 luc2P GAS-RE (IFN-γ-dependent JAK/STAT signaling pathway) and 10 ng of pRL-TK vector (Promega), using X-tremeGENE HP DNA transfection reagent with a 3:1 ratio (Roche). To summarize, the reactive/DNA transfection complexes were prepared in a final volume of 50 μl of McCoy's 5A without serum and without antibiotic, the appropriate amount of each plasmid was added and homogenized, and then the transfection agent was added (3:1). The transfection complexes were carefully mixed and incubated at room temperature for 15 minutes. After incubation, the transfection complexes were added to the freshly resuspended HT-29 cells at the appropriate density in McCoy's 5A medium supplemented with 10% FCS, and then the cell/transfection complex mixtures were gently homogenized and placed on plates. The plates were incubated for 24 h in a humid atmosphere at 5% C02 and the medium was then replaced with medium at 2% FCS for 12 h, after washing with PBS IX. […]
The activity of the luciferase Firefly was read. Then 50 μl reagent Stop&Glo was added and the measurement of the Renilla activity was read with the FLUOstar Omega plate reader (BMG Labtech). […]

SMILES: Nc1ccc(O)c(C(=O)O)c1 [5-ASA]
- secretion of IL-8 reduced relative to the control (Panel A) ([1]; 5-ASA 10 mM): 38%

SMILES: CCCC1O[C@@H]2C[C@H]3[C@@H]4CCC5=CC(=O)C=C[C@]5(C)[C@H]4[C@@H](O)C[C@]3(C)[C@]2(C(=O)CO)O1 (stereo partly drawn) [Budesonide]
- secretion of IL-8 reduced relative to the control (Panel B) ([1]; budesonide 20 μM): 38%

SMILES: C[C@@H]1CCN(C(=O)CC#N)C[C@@H]1N(C)c1ncnc2[nH]ccc12 [Tofacitinib]
- decrease in the IFN-γ-induced activation of the JAK/STAT pathway (JAK/STAT pathway): 49%
